Data: patent US10570426B2, “Method for producing methacrylic acid ester and novel methacrylic acid ester synthetase” (Mitsubishi Chemical Corporation, priority 2014, dated 2020)

What was measured:
[1] = tested on: AAT derived from Chamaemelum nobile; assay: Substrate specificity of AAT derived from Chamaemelum nobile; assay type: biochemical; conditions: 0.12 mM acyl-CoA, pH 8.5, butyl methacrylate = 100%; for Relative activity with ethanol: 40 mM ethanol; for Relative activity with n-butanol: 40 mM n-butanol; for Relative activity with n-hexanol: 40 mM n-hexanol; for Relative activity with methanol: 40 mM methanol
Protocol: The substrate specificity of AAT was evaluated by the purified fraction obtained by MonoQ 5/50 GL column chromatography in Example 9.
In a 2-mL capacity screw vial, a reaction solution (50 mM Tris-HCl (pH 8.5), 40 mM alcohol, 0.12 mM acyl-CoA) was prepared, into which the purified fraction was added to be 500 μL. The vial was sealed and the mixture was reacted at 30° C. for one hour.
After the reaction was completed, 50 μL of 10 mM 2-hexanon was added as the internal sstandard, and solvent extraction was conducted using 200 μL octane or hexane. Centrifugation was conducted and 8 μL of the separated liquid was injected into GC to measure the ester produced through the enzymatic reaction. The amount of ester was calculated by the calibration curve using an internal standard method. The GC measuring conditions were set the same as in Example 9 except that the column temperature was adjusted appropriately for each of the target esters (see Table 4). To determine the quantity of n-butyl propionate, since the present column is unable to separate its peak from the peak of n-butanol, the absolute calibration curve method was employed under the GC-MS analysis conditions the same as in Example 1 (however, temperature conditions were changed to 80° C.→1 min→10° C./min→200° C.·5 min).
Relative activity values are shown based on the specific activity of butyl methacrylate set as 100%.

[2] = tested on: AAT derived from Chamaemelum nobile; assay: Km of AAT derived from Chamaemelum nobile; assay type: biochemical; conditions: 40 mM n-hexanol, Tris-HCl pH 8.5, 30° C., 2 hours
Protocol: The Km values for methacrylyl-CoA and acetyl-CoA were measured using the purified fraction obtained by MonoQ 5/50 GL column chromatography in Example 9. A 500 μL reaction solution was prepared by adding the purified fraction, 40 mM n-hexanol and methacrylyl-CoA or acetyl-CoA at each concentration to a 50 mM Tris-HCl buffer (pH 8.5). The vial was sealed, and reaction was carried out at 30° C. for 2 hours.
After the reaction was completed, the same GC analysis as in Example 10 was conducted to measure the ester produced in the enzymatic reaction. The […] (Km) was applied to a Michaelis-Menten expression to calculate the values using a Kaleidagraph software made by HULINKS.

CC(C)C(=O)SCCNC(=O)CCNC(=O)[C@H](O)C(C)(C)COP(=O)(O)OP(=O)(O)OC[C@H]1O[C@@H](n2cnc3c(N)ncnc32)[C@H](O)[C@@H]1OP(=O)(O)O [isobutyryl-CoA]
Relative activity with ethanol [1]: 5% | Relative activity with n-butanol [1]: 114%

CCCCCC(=O)SCCNC(=O)CCNC(=O)[C@H](O)C(C)(C)COP(=O)(O)OP(=O)(O)OC[C@H]1O[C@@H](n2cnc3c(N)ncnc32)[C@H](O)[C@@H]1OP(=O)(O)O [hexanoyl-CoA]
Relative activity with ethanol [1]: 11% | Relative activity with n-butanol [1]: 21%

CC(=O)SCCNC(=O)CCNC(=O)[C@H](O)C(C)(C)COP(=O)(O)OP(=O)(O)OC[C@H]1O[C@@H](n2cnc3c(N)ncnc32)[C@H](O)[C@@H]1OP(=O)(O)O [acetyl-CoA]
Km [2]: 711 µM | Relative activity with n-butanol [1]: 37% | Relative activity with n-hexanol [1]: 84%

CCC(=O)SCCNC(=O)CCNC(=O)[C@H](O)C(C)(C)COP(=O)(O)OP(=O)(O)OC[C@H]1O[C@@H](n2cnc3c(N)ncnc32)[C@H](O)[C@@H]1OP(=O)(O)O [propionyl-CoA]
Relative activity with methanol [1]: 4% | Relative activity with n-butanol [1]: 136%

CCCC(=O)SCCNC(=O)CCNC(=O)[C@H](O)C(C)(C)COP(=O)(O)OP(=O)(O)OC[C@H]1O[C@@H](n2cnc3c(N)ncnc32)[C@H](O)[C@@H]1OP(=O)(O)O [butyryl-CoA]
Relative activity with n-butanol [1]: 40%

C=C(C)C(=O)SCCNC(=O)CCNC(=O)[C@H](O)C(C)(C)COP(=O)(O)OP(=O)(O)OC[C@H]1O[C@@H](n2cnc3c(N)ncnc32)[C@H](O)[C@@H]1OP(=O)(O)O [methacrylyl-CoA]
Km [2]: 41 µM | Relative activity with ethanol [1]: 4% | Relative activity with methanol [1]: 1% | Relative activity with n-butanol [1]: 100% | Relative activity with n-hexanol [1]: 182%
